From patent US20220096516A1, “OLIGONUCLEOTIDE MOLECULE AND APPLICATION THEREOF IN TUMOR THERAPY” (Ractigen Therapeutics, priority 2019, published 2022) come the findings set out here.

This series deals with LHPP gene. As to the kind of experiment: High-throughput screening of saRNAs targeting LHPP promoter: LHPP mRNA by one-step RT-qPCR in Huh7 cells. It is filed as cell-based, human. The settings on record: 10 nM saRNA, 72 hours, relative to control (Mock). In short, it runs like this: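 Huh7 cells were transfected with 10 nM saRNA using RNAiMax and lysed 72 h later. LHPP mRNA was quantified by one-step RT-qPCR in triplicate wells. Expression was normalised to HPRT1 and TBP and given as fold change versus mock-transfected cells.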

d = 2'-deoxy (DNA); r = 2'-OH (RNA)

Turning to “RAG7-832: saRNA duplex; sense CCAUUGAGGAAACUCCUCCTT (SEQ ID NO: 139), antisense GGAGGAGUUUCCUCAAUGGTT (SEQ ID NO: 303) (sugars from the 5' end r19 d2, backbone not given here)”, the “Fold of changes in relative LHPP mRNA expression level” value turned out to be 1.14 fold and the “Fold of changes in relative LHPP mRNA expression level (log2)” value is 0.19 log2.

Turning to “RAG7-833: saRNA duplex; sense GCCAUUGAGGAAACUCCUCTT (SEQ ID NO: 138), antisense GAGGAGUUUCCUCAAUGGCTT (SEQ ID NO: 302) (sugars from the 5' end r19 d2, backbone not given here)”, the “Fold of changes in relative LHPP mRNA expression level” value worked out at 1.14 fold and the “Fold of changes in relative LHPP mRNA expression level (log2)” value was 0.20 log2.

As for “RAG7-837: saRNA duplex; sense AGGGGCCAUUGAGGAAACUTT (SEQ ID NO: 109), antisense AGUUUCCUCAAUGGCCCCUTT (SEQ ID NO: 273) (sugars from the 5' end r19 d2, backbone not given here)”, the “Fold of changes in relative LHPP mRNA expression level” value was found to be 1.20 fold and the “Fold of changes in relative LHPP mRNA expression level (log2)” value stood at 0.26 log2.

On to “RAG7-839: saRNA duplex; sense CGAGGGGCCAUUGAGGAAATT (SEQ ID NO: 158), antisense UUUCCUCAAUGGCCCCUCGTT (SEQ ID NO: 322) (sugars from the 5' end r19 d2, backbone not given here)”, for which the “Fold of changes in relative LHPP mRNA expression level” value turned out to be 1.11 fold and the “Fold of changes in relative LHPP mRNA expression level (log2)” value was found to be 0.15 log2.

Take “RAG7-844: saRNA duplex; sense GGUUCCGAGGGGCCAUUGATT (SEQ ID NO: 129), antisense UCAAUGGCCCCUCGGAACCTT (SEQ ID NO: 293) (sugars from the 5' end r19 d2, backbone not given here)”: the “Fold of changes in relative LHPP mRNA expression level” value was determined as 1.17 fold and the “Fold of changes in relative LHPP mRNA expression level (log2)” value is reported as 0.22 log2.

For “RAG7-846: saRNA duplex; sense AAGGUUCCGAGGGGCCAUUTT (SEQ ID NO: 11), antisense AAUGGCCCCUCGGAACCUUTT (SEQ ID NO: 175) (sugars from the 5' end r19 d2, backbone not given here)”, the “Fold of changes in relative LHPP mRNA expression level” value is on record as 1.68 fold and the “Fold of changes in relative LHPP mRNA expression level (log2)” value amounted to 0.75 log2.

Regarding “RAG7-847: saRNA duplex; sense AAAGGUUCCGAGGGGCCAUTT (SEQ ID NO: 34), antisense AUGGCCCCUCGGAACCUUUTT (SEQ ID NO: 198) (sugars from the 5' end r19 d2, backbone not given here)”, the “Fold of changes in relative LHPP mRNA expression level” value was 1.48 fold and the “Fold of changes in relative LHPP mRNA expression level (log2)” value is recorded as 0.56 log2.

“RAG7-848: saRNA duplex; sense GAAAGGUUCCGAGGGGCCATT (SEQ ID NO: 87), antisense UGGCCCCUCGGAACCUUUCTT (SEQ ID NO: 251) (sugars from the 5' end r19 d2, backbone not given here)”: the “Fold of changes in relative LHPP mRNA expression level” value came out at 1.25 fold and the “Fold of changes in relative LHPP mRNA expression level (log2)” value came out at 0.32 log2.

Regarding “RAG7-850: saRNA duplex; sense UUGAAAGGUUCCGAGGGGCTT (SEQ ID NO: 46), antisense GCCCCUCGGAACCUUUCAATT (SEQ ID NO: 210) (sugars from the 5' end r19 d2, backbone not given here)”, the “Fold of changes in relative LHPP mRNA expression level” value was 1.39 fold and the “Fold of changes in relative LHPP mRNA expression level (log2)” value turned out to be 0.47 log2.

With “RAG7-851: saRNA duplex; sense CUUGAAAGGUUCCGAGGGGTT (SEQ ID NO: 163), antisense CCCCUCGGAACCUUUCAAGTT (SEQ ID NO: 327) (sugars from the 5' end r19 d2, backbone not given here)”, the “Fold of changes in relative LHPP mRNA expression level” value came to 1.10 fold and the “Fold of changes in relative LHPP mRNA expression level (log2)” value is 0.14 log2.

For the substance “RAG7-852: saRNA duplex; sense ACUUGAAAGGUUCCGAGGGTT (SEQ ID NO: 128), antisense CCCUCGGAACCUUUCAAGUTT (SEQ ID NO: 292) (sugars from the 5' end r19 d2, backbone not given here)”, the “Fold of changes in relative LHPP mRNA expression level” value is 1.17 fold and the “Fold of changes in relative LHPP mRNA expression level (log2)” value was determined as 0.22 log2.

With “RAG7-853: saRNA duplex; sense AACUUGAAAGGUUCCGAGGTT (SEQ ID NO: 146), antisense CCUCGGAACCUUUCAAGUUTT (SEQ ID NO: 310) (sugars from the 5' end r19 d2, backbone not given here)”, the “Fold of changes in relative LHPP mRNA expression level” value is 1.14 fold and the “Fold of changes in relative LHPP mRNA expression level (log2)” value is 0.18 log2.

In the case of “RAG7-879: saRNA duplex; sense GUAAAGUGUUCUCGUUUCUTT (SEQ ID NO: 40), antisense AGAAACGAGAACACUUUACTT (SEQ ID NO: 204) (sugars from the 5' end r19 d2, backbone not given here)”, the “Fold of changes in relative LHPP mRNA expression level” value came to 1.44 fold and the “Fold of changes in relative LHPP mRNA expression level (log2)” value is given as 0.53 log2.

With “RAG7-883: saRNA duplex; sense AGAAGUAAAGUGUUCUCGUTT (SEQ ID NO: 161), antisense ACGAGAACACUUUACUUCUTT (SEQ ID NO: 325) (sugars from the 5' end r19 d2, backbone not given here)”, the “Fold of changes in relative LHPP mRNA expression level” value was found to be 1.11 fold and the “Fold of changes in relative LHPP mRNA expression level (log2)” value turned out to be 0.14 log2.

Turning to “RAG7-884: saRNA duplex; sense CAGAAGUAAAGUGUUCUCGTT (SEQ ID NO: 101), antisense CGAGAACACUUUACUUCUGTT (SEQ ID NO: 265) (sugars from the 5' end r19 d2, backbone not given here)”, the “Fold of changes in relative LHPP mRNA expression level” value stood at 1.22 fold and the “Fold of changes in relative LHPP mRNA expression level (log2)” value was found to be 0.28 log2.

In the case of “RAG7-885: saRNA duplex; sense CCAGAAGUAAAGUGUUCUCTT (SEQ ID NO: 147), antisense GAGAACACUUUACUUCUGGTT (SEQ ID NO: 311) (sugars from the 5' end r19 d2, backbone not given here)”, the “Fold of changes in relative LHPP mRNA expression level” value is 1.14 fold and the “Fold of changes in relative LHPP mRNA expression level (log2)” value was 0.18 log2.

Turning to “RAG7-886: saRNA duplex; sense ACCAGAAGUAAAGUGUUCUTT (SEQ ID NO: 25), antisense AGAACACUUUACUUCUGGUTT (SEQ ID NO: 189) (sugars from the 5' end r19 d2, backbone not given here)”, the “Fold of changes in relative LHPP mRNA expression level” value was found to be 1.52 fold and the “Fold of changes in relative LHPP mRNA expression level (log2)” value is on record as 0.60 log2.

As for “RAG7-887: saRNA duplex; sense GACCAGAAGUAAAGUGUUCTT (SEQ ID NO: 51), antisense GAACACUUUACUUCUGGUCTT (SEQ ID NO: 215) (sugars from the 5' end r19 d2, backbone not given here)”, the “Fold of changes in relative LHPP mRNA expression level” value came out at 1.37 fold and the “Fold of changes in relative LHPP mRNA expression level (log2)” value is 0.46 log2.

In the case of “RAG7-889: saRNA duplex; sense UGGACCAGAAGUAAAGUGUTT (SEQ ID NO: 115), antisense ACACUUUACUUCUGGUCCATT (SEQ ID NO: 279) (sugars from the 5' end r19 d2, backbone not given here)”, the “Fold of changes in relative LHPP mRNA expression level” value amounted to 1.19 fold and the “Fold of changes in relative LHPP mRNA expression level (log2)” value turned out to be 0.25 log2.

Take “RAG7-890: saRNA duplex; sense UUGGACCAGAAGUAAAGUGTT (SEQ ID NO: 76), antisense CACUUUACUUCUGGUCCAATT (SEQ ID NO: 240) (sugars from the 5' end r19 d2, backbone not given here)”: the “Fold of changes in relative LHPP mRNA expression level” value stood at 1.28 fold and the “Fold of changes in relative LHPP mRNA expression level (log2)” value turned out to be 0.36 log2.

Regarding “RAG7-892: saRNA duplex; sense UGUUGGACCAGAAGUAAAGTT (SEQ ID NO: 2), antisense CUUUACUUCUGGUCCAACATT (SEQ ID NO: 166) (sugars from the 5' end r19 d2, backbone not given here)”, the “Fold of changes in relative LHPP mRNA expression level” value stood at 2.05 fold and the “Fold of changes in relative LHPP mRNA expression level (log2)” value is listed as 1.03 log2.

As to “RAG7-893: saRNA duplex; sense AUGUUGGACCAGAAGUAAATT (SEQ ID NO: 14), antisense UUUACUUCUGGUCCAACAUTT (SEQ ID NO: 178) (sugars from the 5' end r19 d2, backbone not given here)”, the “Fold of changes in relative LHPP mRNA expression level” value came out at 1.63 fold and the “Fold of changes in relative LHPP mRNA expression level (log2)” value is given as 0.70 log2.

With “RAG7-894: saRNA duplex; sense UAUGUUGGACCAGAAGUAATT (SEQ ID NO: 37), antisense UUACUUCUGGUCCAACAUATT (SEQ ID NO: 201) (sugars from the 5' end r19 d2, backbone not given here)”, the “Fold of changes in relative LHPP mRNA expression level” value is 1.45 fold and the “Fold of changes in relative LHPP mRNA expression level (log2)” value was found to be 0.54 log2.

On to “RAG7-896: saRNA duplex; sense GCUAUGUUGGACCAGAAGUTT (SEQ ID NO: 69), antisense ACUUCUGGUCCAACAUAGCTT (SEQ ID NO: 233) (sugars from the 5' end r19 d2, backbone not given here)”, for which the “Fold of changes in relative LHPP mRNA expression level” value was determined as 1.30 fold and the “Fold of changes in relative LHPP mRNA expression level (log2)” value was found to be 0.38 log2.

“RAG7-897: saRNA duplex; sense AGCUAUGUUGGACCAGAAGTT (SEQ ID NO: 65), antisense CUUCUGGUCCAACAUAGCUTT (SEQ ID NO: 229) (sugars from the 5' end r19 d2, backbone not given here)”: the “Fold of changes in relative LHPP mRNA expression level” value was determined as 1.31 fold and the “Fold of changes in relative LHPP mRNA expression level (log2)” value is given as 0.39 log2.
